Tests used:
[1] = 24 h organ biodistribution of radio-iodinated micelles and 6BIO in mice with femoral fracture; type: in vivo, CD4 Swiss mice
Method: Radio-iodination of micelles and 6BIO. The stannylated unimers and stannylated 6BIO (0.3-0.5 μmol) were dissolved in 100 μL DMF. The solutions were transferred to Wheaton V-vials containing a solution of [^125I]NaI (5.0 mCi) in 100 μL DMF phosphate-buffered saline (PBS) (pH 7.4). Chloramine-T was added, and the reaction mixture stirred for 15 min at ambient temperature. Purification of the iodinated micelles was performed using a LH20 column eluted with MeOH. Iodinated 6BIO was dissolved in EtOAc and was washed twice with water. The solvent of all three reactions was evaporated using a stream of nitrogen, and the residue was dissolved with PBS (pH 7.4) to obtain solutions with an activity concentration of 370 kBq/100 μL. The overall radiochemical yield was ca. 10%.
Murine fracture induction. […] The skin incision was made medial parapetellar.
Injection and dissection techniques/counting for 24 h biodistribution. From the iodinated products described previously 1 uCi/mL solutions were made in sterile PBS. […] Two weeks following fracture induction, each mouse received a 0.1 μCi (0.1 mL) dose of the radio-iodinated linear micelles, branched micelle, or free drug. Animals were then placed back in their cages for 24 h. At 24 h they were sacrificed using CO2 excess. Blood was drawn from a cardiopuncture and all other organs measured were removed (lungs, liver, spleen, kidneys, fractured femur, healthy femur). The activity was counted using Packard Cobra Auto-Gamma and was normalized by dividing the count rate by the weights of each organ.
Biodistribution: Organ biodistribution at 24 h. […] Although a cleavable linker is necessary for therapy studies, it may pose a problem with biodistribution studies. At 24 h of an in vivo study, 30% of the drug may be released. In a biodistribution study, premature release would not give accurate information on how well the targeting ligand is able to remain in the fracture site. A non-degradable oxime ether linker replaced the oxime-ester linker in the micelles for biodistribution. […]

solubility in water = type: physicochemical; settings: 6BIO by itself
Description: The drug being attached to the unimers was a GSK3β inhibitor, 6BIO. […] By including 6BIO in the unimer design, the unimer solubilized the drug while the drug stabilized the micelle. The oxime of 6BIO was first conjugated to the carboxylic group of a 4-pentynoic acid derivative and then clicked to the azide-containing unimer by the alkyne on the 4-pentynoic acid derivative. Upon completion of the click reaction, the micelle was purified, dried, and formed micelles upon reconstitution in PBS.

[2] = mouse, in vivo
Method: CD4 Swiss mice (30-35 g) acquired from Harlan laboratories were used for these experiments.
The study was performed on 3 groups of mice with 5 mice per group. Two weeks following fracture induction each mouse received 0.1 mCi (0.1 mL) of dose. Animals were then returned to their cages until euthanasia by CO2 overdose at the desired time point (1 h, 4 h, 24 h). Animals were imaged using MiLabs U-SPECT-II/CT. 3D reconstructions were performed using Image J software.
SPECT/CT biodistribution.

[3] = system: stabilized femoral fracture; assay: fracture healing efficacy, μCT analysis of fracture callus; type: in vivo, male CD4 Swiss Webster mice; settings: 6.9 nmol/kg/dose i.v. every 3 days, 3 weeks after fracture, mean±SEM
Method: Mouse handling. All animal experiments were performed in accordance to Purdue University's IACUC approved protocols. Forty mice (10 per group) 31-35 g male CD4 Swiss Webster mice were purchased from Harlan laboratories. Mice were able to move freely throughout the experiment. At 3 weeks following fracture induction, mice were euthanized using a CO2 overdose. […] Mouse bone fracture. […] The skin incision was made over the knee. The patella was then dislocated and a small hole was made under the patella with a 25 guage needle. The needle was used to ream the intramedullary canal. A 22 guage locking nail was produced by flattening both ends was then inserted. The incision site was sutured and the femur was then fractured using a three-point bending device. […] Mouse dosing. Mice were dosed intravenously by tail vein injection every 3 days starting on the day of fracture induction. […] Mice receiving drug dosages were administered drugs at the follow dose 6.9 nmol/kg/dose in approximately 0.1 mL of PBS. PBS control mice received 0.1 mL of PBS. μCT analysis. […] The bones were scanned while immersed in PBS to prevent dehydration. Scanco μCT software was used to analyze the images for bone density, total volume (TV), relative bone volume (BV/TV), trabecular thickness (Tb.Th), and trabecular spacing (Tb.Sp). Volumes of interest included the fracture callus, and both cortical and trabecular bone between the points on the cortical bone where the bone was fractured. Statistical analysis. Statistical analyses were calculated using Prism GraphPad software. Data is presented in results as mean±standard error of the mean (SEM).

[4] = 24 h after injection, two weeks after fracture, 125I-labelled, non-degradable oxime ether linker

## O=C1Nc2ccccc2C1=C1Nc2cc(Br)ccc2C1=NO [6BIO, 6′-bromoindirubin-3′-oxime]
[1]; 24 h
  accumulation in the lungs, liver, and spleen: high accumulation
[1]; [4]
  accumulation in fractured femurs: 0.4±0.05% of injected dose/gram
  accumulation in healthy femurs: 0.5±0.10% of injected dose/gram
Solubility in water
  solubility in water: not soluble in water
[2]
  SPECT/CT distribution at 1 h: primarily found in the stool
  SPECT/CT distribution at 4 h: primarily contained in the bowel
  SPECT/CT distribution at 24 h: appears to be cleared
[3]
  Tb. Sp (trabecular spacing): 0.191 ± 0.009 mm
  bone density of fracture callus: 337.8±14.2 mg HAp/cm^3
[3]; listed as Free 6BIO
  BV/TV (relative bone volume): 0.338 ± 0.015
  TV (callus total volume): 48.2 ± 5.8 mm^3
  Tb. Th (trabecular thickness): 0.134 ± 0.007 mm
[3]; listed as free 6BIO
  BV/TV (relative bone volume): 0.338±0.015
  TV (callus total volume): 48.2±5.8 mm^3
  Tb. Th (trabecular thickness): 0.134±0.007 mm
